Results published in patent US8961924B2, “Metal complexes” (University of Zurich, priority 2008, dated 2015).

Assay: Model experiments with 99Tc complex kept at pH 1
Assay type: physicochemical
Conditions: complex with 99Tc; kept at pH 1 for days

[O]=[Tc]12(=[O])(=[O])[N]3CC[N]1CC[N]2CC3 [Compound 1, [TcO3(tacn)]^+]
hydrolysis at pH 1: without significant hydrolysis
